Data reported in US7910363B1, “Lipophilic polyamines providing enhanced intracellular delivery of agents by a polyamine transport system” (University of Central Florida Research Foundation, Inc., priority 2007, dated 2011).

Legend:
CHO K1 cells [1] = assay: eGFP DNA plasmid transfection, GFP expression by FACS (FIG. 10, FIG. 11); type: cell-based, Chinese hamster; conditions: for % GFP positive cells (transfection efficiency): 5 μg/mL dose
Description: (§1) Medium was then changed, and cells were incubated for another 24 h to allow for GFP plasmid expression; cells were detached by trypsin treatment and analyzed for GFP expression by FACS; Lipofectamine is denoted as LFA; the value obtained with DNA plasmid only was subtracted from each entry above (almost negligible);
In order for the ‘therapy’ to be effective, the DNA must escape from the endosome and enter the cell's nucleus, be transcribed to a regulatory, non coding RNA (RNAi) or to mRNA that is translated into its coded protein. Therefore, we investigated the conjugate-assisted expression of an eGFP DNA plasmid encoding for the green fluorescent protein (GFP). CHO cells, which were successfully transfected, were easily identified by their green fluorescence. Control experiments conducted with only the eGFP DNA plasmid (and no lipid carrier) gave virtually no fluorescence. A gate or instrumental threshold was set based upon this low background fluorescence. Fluorescence detected above this background was considered a positive response.
as §1, with “expression. Cells” for “expression; cells”, “FACS.” for “FACS;”, “LFA. The” for “LFA; the”, “negligible).” for “negligible);”
A gate was set just above the threshold measured with no DNA plasmid and no conjugate added (almost negligible). […] Data are presented as the mean±SD.
(§2) GFP transfection experiments—eGFP encoding DNA plasmid with or without cationic lipid was mixed in F12K and incubated with pre-rinsed, sub-confluent cells in 24-well plates for 4 h, followed by another incubation period of 24 h in growth medium. Cells were then washed with PBS, detached by trypsin treatment, dissolved in PBS, 1% BSA, and analyzed by FACS for GFP expression.

CHO K1 cells [2] = conditions: for DNA uptake, fluorescence of imported Alexa Fluor-488-DNA: 5 μg/mL cationic lipid (black bars, FIG. 8), 1 μg/mL DNA, 4 h at 37° C.; for DNA uptake compared with the lipofectamine control: 0.5, 2.5, 5 μg/mL; for increase in DNA uptake/delivery over diamine 22: FIG. 8, 5 μg/mL dose
Description: CHO K1 cells were grown to confluence in 24-well plates, rinsed with medium and incubated for 4 h at 37° C. with 1 μg/mL Alexa Fluor-488-DNA complexed with 0.5 μg/mL (white bars), 2.5 μg/mL (gray bars), or 5 μg/mL (black bars) of the respective cationic lipid, as indicated above each entry; cells were then extensively washed with PBS, treated with trypsin, and cell pellets were again extensively washed with PBS 1% BSA to completely remove non-specific fluorescence from the cell exterior; finally, cells were analyzed for Alexa Fluor-488-DNA uptake by flow cytometry on a FACSCalibur (BD Biosciences) operated by Cell-Quest software.
CHO K1 cells were grown to confluence in 24-well plates, rinsed with medium and incubated for 4 h at 37° C. with 1 μg/mL Alexa Fluor-488-DNA complexed with 0.5 μg/mL (white bars), 2.5 μg/mL (grey bars), or 5 μg/mL (black bars) of the respective cationic lipid, as indicated above each entry. Cells were then extensively washed with PBS, treated with trypsin, and cell pellets were again extensively washed with PBS 1% BSA to completely remove non-specific fluorescence from the cell exterior. Finally, cells were analyzed for Alexa Fluor-488-DNA uptake by flow cytometry on a FACSCalibur (BD Biosciences) operated by Cell-Quest software.
A gate was set just above the threshold signal for control cells (DNA only with no lipid conjugate). […] Data are presented as the mean±SD.
AlexaFluor-488 labeled DNA with or without cationic lipid was mixed in serum-free F12K and added to extensively rinsed cells grown in 24-well plates. Cells were then incubated for 4 h at 37° C. After removal of the incubation medium and rinsing with PBS, cells were detached with trypsin followed by extensive washing with ice-cold PBS, 1% (w/v) bovine serum albumin (BSA) to remove non-specific fluorescence. Finally, cells were suspended in PBS, 1% BSA and analyzed for DNA uptake by flow cytometry on a FACSCalibur (BD Biosciences) operated by Cell-Quest software.

[3] = tested on: polyamine transporter, PAT; assay: [14C]Spermine uptake inhibition (competition assay) in CHO-K1 cells (FIG. 12); type: cell-based, Chinese hamster
Description: We theorized that 26 may be using the polyamine transporter, PAT, for cellular entry. […] This observation implied that 26 was able to compete for the polyamine recognition sites on the cell surface (e.g., PAT). Therefore, it is possible that certain lipophilic polyamines, which present the correct polyamine ‘message’, may be able to recognize and target cells expressing high levels of polyamine transporters on their cell surface (e.g., cancer cells, rapidly dividing tumors, etc.). However, as shown in this report, delivery into the cell is just one step in successful gene transfection. Nevertheless, the findings disclosed herein are an important first step in developing ‘smart’ transfection agents.

[4] = tested on: DU145 human prostate cancer cells; assay: Lipopolyamine-induced sensitization to FGF-saporin intoxication, DU145; type: cell-based
Description: (§3) We have also documented lipopolyamine-induced toxin sensitization with two other saporin-based toxins: (i) FGF-saporin, a chemical conjugate between fibroblast growth factor and saporin; and (ii) the OKT10 immunotoxin which consists of a chemical conjugate between saporin and an antibody that recognizes the CD38 cancer antigen. DU145 human prostate cancer cells exposed to lipopolyamine 26 and FGF-saporin were 85-fold more sensitive to intoxication than cells incubated with FGF-saporin alone. […] We have also shown that Ramos human leukemia cells exposed to lipopolyamine 26 and OKT10 are 100-fold more sensitive to intoxication than cells incubated with OKT10 alone.

HeLa cells [5] = assay: Sensitization to FGF-saporin intoxication in non-target HeLa cells; type: cell-based; conditions: which do not express the FGF receptor
[6] = tested on: Ramos human leukemia cells; assay: Sensitization to OKT10 immunotoxin intoxication, Ramos; type: cell-based
Description: as §3

CHO K1 cells [7] = type: cell-based; conditions: Chinese hamster, 24 h, 0.5 μM
Description: Taking these factors into account, cytotoxicity screens were performed to investigate the relative toxicity of each system. Most materials were relatively non-toxic with IC50 values ≧20 μM. Armed with this insight, cells were treated with ≦6.4 μM of the polyamine conjugate so as to avoid significant toxic effects from the delivery agent itself. Indeed, at this dose ≧90% of cells survived transfection for all compounds except 28. Indeed, compound 28 was very toxic (after 24 h incubation) and even at the lowest dose used for transfection (0.5 μg/mL; 0.5 μM 28) killed 95% of the cells. As such, 28 was too toxic for efficient transfection at the doses surveyed and its data is strongly biased by the few remaining cells, which survived.
as §2

HeLa cells [8] = conditions: cited from earlier work

Structure (SMILES)	% GFP positive cells (transfection efficiency) (CHO K1 cells [1]; FIG. 11) [%]	DNA uptake, fluorescence of imported Alexa Fluor-488-DNA (CHO K1 cells [2]) [a.u.]	GFP expression/cell (CHO K1 cells [1]; 5 μg/mL, FIG. 10) [a.u.]	DNA uptake compared with the lipofectamine control (CHO K1 cells [2]; FIG. 8)	increase in DNA uptake/delivery over diamine 22 (CHO K1 cells [2])	also measured
CCCCCCCCC=CCCCCCCCCOc1ccc(CNCCCCN)cc1OCCCCCCCCC=CCCCCCCCC.Cl.Cl [Compound 22, N^1-(3,4-Bis-octadec-9-enyloxy-benzyl)-butane-1,4-diamine, dihydrochloride salt]	38	94	–	–	–	–
CCCCCCCCC=CCCCCCCCCOc1ccc(CNCCCCCCCCN)cc1OCCCCCCCCC=CCCCCCCCC.Cl.Cl [Compound 23, N^1-(3,4-Bis-octadec-9-enyloxy-benzyl)-octane-1,8-diamine, dihydrochloride salt]	23	–	5	–	–	positive cells of the total cell population after DNA uptake experiment (CHO K1 cells [2]; 5 μg/mL, black bars in FIG. 9, gated): 84%
CCCCCCCCC=CCCCCCCCCOc1ccc(CNCCOCCOCCN)cc1OCCCCCCCCC=CCCCCCCCC.Cl.Cl [Compound 24, 2-{2-[2-(3,4-Bis-octadec-9-enyloxy-benzylamino)-ethoxy]-ethoxy}-ethylamine, dihydrochloride salt]	25	–	7	as good	–	DNA delivery (DNA probe fluorescence) of polyether eight-atom spacer versus octanediamine analogue (CHO K1 cells [2]; FIG. 8): nearly doubled
CCCCCCCCC=CCCCCCCCCOc1ccc(CNCCCCNCCCCN)cc1OCCCCCCCCC=CCCCCCCCC.Cl.Cl.Cl [Compound 25, N-(4-Amino-butyl)-N′-(3,4-bis-octadec-9-enyloxy-benzyl)-butane-1,4-diamine, tri hydrochloride salt]	49	281	–	as good	3 fold	transfection efficiency compared with 22 (CHO K1 cells [1]; FIG. 11): only slightly higher transfection efficiency than 22; DNA delivery compared with 22 (CHO K1 cells [2]; FIG. 8): three-fold increase
CCCCCCCCC=CCCCCCCCCOc1ccc(CNCCCCNCCCCNCCCCN)cc1OCCCCCCCCC=CCCCCCCCC.Cl.Cl.Cl.Cl [Compound 26, N-[4-(4-Amino-butylamino)-butyl]-N′-(3,4-bis-octadec-9-enyloxy-benzyl)-butane-1,4-diamine, tetrahydrochloride salt]	67	504	25	better	> 5 fold	higher transfection efficiency than the LFA control (CHO K1 cells [1]; 5 μg/mL, FIG. 11): over 50%; relative GFP expression/cell versus LFA (CHO K1 cells [1]; FIG. 10): two fold higher; % of GFP positive cells relative to LFA (CHO K1 cells [1]; FIG. 11): 1.5 fold; IC50 ([3]; 1 μM [14C]spermine, 20 min, serum free medium, CHO-K1): ~10 µM; polyamine uptake inhibition ([3]; FIG. 12 legend): efficient inhibitor of polyamine uptake; sensitivity to FGF-saporin intoxication versus FGF-saporin alone [4]: 85 fold; sensitization of non-target cells to FGF-saporin (HeLa cells [5]): no more sensitive to intoxication; sensitivity to OKT10 intoxication versus OKT10 alone [6]: 100 fold; DNA delivered to the cell relative to control LFA (CHO K1 cells [2]; black bars in FIG. 8, 5 μg/mL): 3 fold
CCCCCCCCC=CCCCCCCCCOc1ccc(C(=O)NCCCCNCCCCN)cc1OCCCCCCCCC=CCCCCCCCC.Cl.Cl [Compound 27, N-[4-(4-Amino-butylamino)-butyl]-3,4-bis-octadec-9-enyloxy-benzamide, dihydrochloride salt]	40	–	–	better	greater than 4 fold	transfection efficiency compared with 22 (CHO K1 cells [1]; FIG. 11): nearly identical transfection efficiency; DNA delivery compared with 22 (CHO K1 cells [2]; FIG. 8): more efficient DNA delivery agent than 22
CCCCCCCCC=CCCCCCCCCOc1ccc(C(=O)NCCCCNCCCCNCCCCN)cc1OCCCCCCCCC=CCCCCCCCC.Cl.Cl.Cl [Compound 28, N-{4-[4-(4-Amino-butylamino)-butylamino]-butyl}-3,4-bis-octadec-9-enyloxy-benzamide, trihydrochloride salt]	–	–	–	–	–	cells killed (CHO K1 cells [7]): 95%
CCCCCCCCCCCCCCCCCCN(CCCCCCCCCCCCCCCCCC)C(=O)CNC(=O)CNCCCNCCCCNCCCN [RPR 120535]	–	–	–	–	–	more effective at transfection than branched-, globular- or T-shaped polar domains (HeLa cells [8]): 5-10 times
